Source: US11691968B2, “Compound having KDM5 inhibitory activity and pharmaceutical use thereof” (ONO PHARMACEUTICAL CO., LTD., priority 2020, dated 2023)

How the values were obtained:
[1] = Metabolic Stability in Human Liver Microsomes; assay type: in vitro ADME
Method: Metabolic Stability in Human Liver Microsomes
Human liver microsome (BD Gentest Corporation, Cat No. #452161) incubations were conducted in duplicate in 96-well plates. Each well contains 40 μL of 0.1 M potassium phosphate buffer (pH 7.4), 4.125 mM MgCl2, 0.625 mg/mL liver microsomes, and test compound (1.25 μM). After 5-min preincubation at 37° C., 10 uL of 5.0 mM NADPH in 0.1M potassium phosphate buffer was added to initiate the enzymatic reaction. The final component concentrations are 0.1M potassium phosphate buffer (pH 7.4), 1.0 mM NADPH, 3.3 mM MgCl2, 0.5 mg/mL liver microsomes, and test compound (1.0 μM). Reactions were terminated at 0 and 60 min by adding 200 μL of ice-cold acetonitrile containing internal standard.
LC-MS/MS analysis was conducted as specified below.
The remaining at 60 min (%) of test compound was calculated from the peak area ratio (test compound/internal standard) of samples collected 0 and 60 min after the start of the reaction according to the formula described below. Remaining at 60 min (%)=peak area ratio of sample collected at 60 min/peak area ratio of sample collected at 0 min×100 [Results]

[2] = biological target: KDM5A (Homo sapiens (Human), UniProt P29375); test: Biochemical KDM5A Inhibition Assay (HTRF); conditions: KDM5A protein, biotin-labelled H3K4-Me3 substrate
Chain of KDM5A (P29375 whole entry): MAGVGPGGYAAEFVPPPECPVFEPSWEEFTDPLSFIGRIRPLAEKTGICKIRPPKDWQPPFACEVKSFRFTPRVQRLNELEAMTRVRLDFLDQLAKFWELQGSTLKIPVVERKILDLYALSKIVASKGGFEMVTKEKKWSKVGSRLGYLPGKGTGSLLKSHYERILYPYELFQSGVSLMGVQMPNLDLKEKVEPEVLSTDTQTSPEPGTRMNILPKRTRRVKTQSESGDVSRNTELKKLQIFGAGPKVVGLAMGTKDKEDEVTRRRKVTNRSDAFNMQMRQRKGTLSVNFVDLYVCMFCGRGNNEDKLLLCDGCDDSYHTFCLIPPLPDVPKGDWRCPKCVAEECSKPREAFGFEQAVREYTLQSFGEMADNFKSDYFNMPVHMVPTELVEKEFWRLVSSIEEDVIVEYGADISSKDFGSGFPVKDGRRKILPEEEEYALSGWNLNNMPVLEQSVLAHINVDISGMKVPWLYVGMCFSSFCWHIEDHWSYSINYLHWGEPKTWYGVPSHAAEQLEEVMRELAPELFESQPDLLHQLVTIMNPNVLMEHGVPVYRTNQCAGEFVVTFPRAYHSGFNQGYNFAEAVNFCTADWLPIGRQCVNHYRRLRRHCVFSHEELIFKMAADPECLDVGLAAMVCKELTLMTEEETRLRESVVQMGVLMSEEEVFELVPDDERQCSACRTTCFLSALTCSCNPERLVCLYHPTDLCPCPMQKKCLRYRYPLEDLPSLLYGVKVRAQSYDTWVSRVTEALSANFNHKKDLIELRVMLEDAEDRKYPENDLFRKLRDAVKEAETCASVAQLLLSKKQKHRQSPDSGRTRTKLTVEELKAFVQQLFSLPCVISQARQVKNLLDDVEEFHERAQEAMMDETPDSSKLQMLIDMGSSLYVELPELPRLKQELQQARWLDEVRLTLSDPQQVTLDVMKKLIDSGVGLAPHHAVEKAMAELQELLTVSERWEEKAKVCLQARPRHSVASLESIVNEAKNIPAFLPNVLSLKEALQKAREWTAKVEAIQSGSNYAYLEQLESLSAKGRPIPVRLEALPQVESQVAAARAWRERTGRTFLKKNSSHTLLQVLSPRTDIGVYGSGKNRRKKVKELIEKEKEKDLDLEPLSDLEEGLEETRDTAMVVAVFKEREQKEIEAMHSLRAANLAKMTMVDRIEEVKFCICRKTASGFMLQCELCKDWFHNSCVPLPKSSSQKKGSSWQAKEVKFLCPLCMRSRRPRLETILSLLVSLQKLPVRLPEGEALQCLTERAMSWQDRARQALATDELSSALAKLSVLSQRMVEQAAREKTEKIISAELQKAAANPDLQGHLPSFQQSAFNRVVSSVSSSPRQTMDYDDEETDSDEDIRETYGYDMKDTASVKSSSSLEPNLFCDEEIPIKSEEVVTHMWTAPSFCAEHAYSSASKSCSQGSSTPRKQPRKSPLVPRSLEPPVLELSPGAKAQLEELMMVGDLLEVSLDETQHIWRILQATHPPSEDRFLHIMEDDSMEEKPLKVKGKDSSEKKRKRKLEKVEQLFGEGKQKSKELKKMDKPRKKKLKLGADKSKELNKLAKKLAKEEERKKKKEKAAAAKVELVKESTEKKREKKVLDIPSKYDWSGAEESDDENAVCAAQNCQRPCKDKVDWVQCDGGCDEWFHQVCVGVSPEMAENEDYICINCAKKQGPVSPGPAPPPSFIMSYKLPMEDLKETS
Method: Biochemical KDM5A Inhibition Assay
Using 384-well white Greiner784075 (Greiner), representative compounds were characterized for their inhibition of KDM5A using HTRF® technology (Cisbio Bioassays). Briefly, the test compounds, reference compounds, and DMSO control (typical compound concentration range 1 μM-[…], final assay concentration (FAC*) of DMSO 0.5%) were added to 384-well plate by the Echo® acoustic dispensing platform (Labcyte). Five (5) 1l of KDM5A protein (produced by the method described in Nat Chem Biol 12, 531-538 (2016)). (5-20 nM FAC*) in assay buffer (50 mM MES, 50 mM NaCl, 1 mM TCEP, 0.01% v/v Tween 20, 0.03% BSA, pH 6.5) was added to wells and plates were incubated for 10-20 minutes at 25 degrees celsius. Then, 5 μl of alpha-ketoglutaric acid (100 μM FAC*), biotin-labelled H3K4-Me3 substrate (Anaspec Cat #AS-64357-1; 200 nM FAC*), Fe(II)SO4 (100 μM FAC*) and ascorbic acid (2 mM FAC*) in assay buffer was added to wells and plates were incubated for 20 minutes at room temperature. The reaction was stopped with the addition of 10 μl of anti-H3K4-Me2-Eu(K) (Cisbio Bioassays Cat #61KA2KAH; 0.75 nM FAC**)+Streptavidin XL665 (Cisbio Bioassays Cat #610SAXLB; 25 nM FAC**) in HTRF detection buffer (Cisbio Bioassays Cat #62SDBRDF). The mixture was incubated for 30 minutes at room temperature before 340 nm excitation and measurement of dual emission at 620 nm and 665 run. *FAC: final assay concentration calculated based on 10 μl of the assay buffer**FAC: final assay concentration calculated based on 20 μl of the detection buffer
The raw data (a 665 nm and a 620 nm reading from each well) for individual assay plates were analyzed. The ratio of emissions was calculated using the following calculation: Ratio=(665 nm emission/620 nm emission)×10000. […] Compound IC50 values were calculated from graphs of % inhibition plotted against compound concentration, using a four parameter curve fit. [Results]

[3] = 0.5 mg/mL liver microsomes, 1.0 μM test compound, 1.0 mM NADPH, 37° C., 60 min

| SMILES | Metabolic stability in human liver microsomes (% remaining at 60 min) ([1]; human, microsomes, 1 h) | IC50 [2] | Metabolic stability in human liver microsomes (% remaining at 60 min) [1, 3] |
| --- | --- | --- | --- |
| CC(n1cnc(C(=O)N2C[C@@H]3C(C4=NOC(C)(C)C4)[C@@H]3C2)c1)C(F)(F)F (stereo partly drawn) [Example 9, [(1R,5S,6r)-6-(5,5-dimethyl-4,5-dihydro-1,2-oxazol-3-yl)-3-azabicyclo[3.1.0]hex-3-yl][1-(1,1,1-trifluoropropan-2-yl)-1H-imidazol-4-yl]methanone] | 93% | 400 nM |  |
| C[C@@H](c1ccccc1C#N)n1cnc(C(=O)N2C[C@@H]3[C@H](C2)[C@H]3C2=NOC(C)(C)C2)c1 [Example 22, 2-[(1S)-1-(4-{[(1R,5S,6S)-6-(5,5-dimethyl-4,5-dihydro-1,2-oxazol-3-yl)-3-azabicyclo[3.1.0]hex-3-yl]carbonyl}-1H-imidazol-1-yl)ethyl]benzonitrile] |  | 400 nM |  |
| C[C@@H](c1ccc(C#N)cc1)n1cnc(C(=O)N2C[C@@H]3[C@H](C2)[C@H]3C2=NOC(C)(C)C2)c1 [Example 24, 4-[(1S)-1-(4-{[(1R,5S,6S)-6-(5,5-dimethyl-4,5-dihydro-1,2-oxazol-3-yl)-3-azabicyclo[3.1.0]hex-3-yl]carbonyl}-1H-imidazol-1-yl)ethyl]benzonitrile] | 101% | 200 nM |  |
| C[C@@H](c1nccs1)n1cnc(C(=O)N2C[C@@H]3[C@H](C2)[C@H]3C2=NOC(C)(C)C2)c1 [Example 27, [(1R,5S,6S)-6-(5,5-dimethyl-4,5-dihydro-1,2-oxazol-3-yl)-3-azabicyclo[3.1.0]hex-3-yl]{1-[(1S)-1-(1,3-thiazol-2-yl)ethyl]-1H-imidazol-4-yl}methanone] | 97% | 1000 nM |  |
| CC(C)n1cnc(C(=O)N2C[C@@H]3C(C4=NOC(C)(C(F)F)C4)[C@@H]3C2)c1 (stereo partly drawn) [Example 40, {(1R,5S,6r)-6-[5-(difluoromethyl)-5-methyl-4,5-dihydro-1,2-oxazol-3-yl]-3-azabicyclo[3.1.0]hex-3-yl}(1-isopropyl-1H-imidazol-4-yl)methanone] |  | 200 nM | 103% |
| Cc1onc([C@H]2[C@@H]3CN(C(=O)c4cn(C(C)C)cn4)C[C@@H]32)c1-c1ccccc1 [Example 55, (1-isopropyl-1H-imidazol-4-yl)[(1R,5S,6r)-6-(5-methyl-4-phenyl-1,2-oxazol-3-yl)-3-azabicyclo[3.1.0]hex-3-yl]methanone] |  | 20 nM |  |
| Cc1cc([C@H]2[C@@H]3CN(C(=O)c4cn(C(C)C)cn4)C[C@@H]32)no1 [Example 56, (1-isopropyl-1H-imidazol-4-yl)[(1R,5S,6r)-6-(5-methyl-1,2-oxazol-3-yl)-3-azabicyclo[3.1.0]hex-3-yl]methanone] |  | 200 nM |  |
| CC(C)n1cnc(C(=O)N2C[C@@H]3[C@H](C2)[C@H]3C2=NOC(C)(C)N2C)c1 [Example 59, (1-isopropyl-1H-imidazol-4-yl)[(1R,5S,6r)-6-(4,5,5-trimethyl-4,5-dihydro-1,2,4-oxadiazol-3-yl)-3-azabicyclo[3.1.0]hex-3-yl]methanone] | 100% | 20 nM |  |
| CCN1C([C@H]2[C@@H]3CN(C(=O)c4cn(C(C)C)cn4)C[C@@H]32)=NOC1(C)C [Example 60, [(1R,5S,6r)-6-(4-ethyl-5,5-dimethyl-4,5-dihydro-1,2,4-oxadiazol-3-yl)-3-azabicyclo[3.1.0]hex-3-yl](1-isopropyl-1H-imidazol-4-yl)methanone] | 102% | 200 nM |  |
| CC(C)n1cnc(C(=O)N2C[C@@H]3[C@H](C2)[C@H]3c2nnn3ccccc23)c1 [Example 62, (1-isopropyl-1H-imidazol-4-yl)[(1R,5S,6r)-6-([1,2,3]triazolo[1,5-a]pyridin-3-yl)-3-azabicyclo[3.1.0]hex-3-yl]methanone] | 83% | 10 nM |  |
| CC(C)n1cnc(C(=O)N2C[C@@H]3[C@H](C2)[C@H]3c2nnn[nH]2)c1 [Example 63, (1-isopropyl-1H-imidazol-4-yl)[(1R,5S,6r)-6-(1H-tetrazol-5-yl)-3-azabicyclo[3.1.0]hex-3-yl]methanone] |  | 10 nM |  |
| CC(C)n1cnc(C(=O)N2C[C@@H]3[C@H](C2)[C@H]3C(=O)NC(C)(C)C)c1 [Example 65, (1R,5S,6r)-N-tert-butyl-3-[1-(propan-2-yl)-1H-imidazole-4-carbonyl]-3-azabicyclo[3.1.0]hexane-6-carboxamide] |  | 20 nM | 93% |
| CC(C)n1cnc(C(=O)N2C[C@@H]3[C@H](C2)[C@H]3C(=O)N(C)C(C)(C)C)c1 [Example 66, (1R,5S,6r)-N-tert-butyl-N-methyl-3-[1-(propan-2-yl)-1H-imidazole-4-carbonyl]-3-azabicyclo[3.1.0]hexane-6-carboxamide] |  | 30 nM | 89% |
| CC(C)n1cnc(C(=O)N2C[C@@H]3[C@H](C2)[C@H]3C(=O)N(C)C2(C#N)CC2)c1 [Example 69, (1R,5S,6r)-N-(1-cyanocyclopropyl)-N-methyl-3-[1-(propan-2-yl)-1H-imidazole-4-carbonyl]-3-azabicyclo[3.1.0]hexane-6-carboxamide] |  | 200 nM | 89% |
| CC(C)n1cnc(C(=O)N2C[C@@H]3[C@H](C2)[C@H]3C(=O)c2cccs2)c1 [Example 76, (1-isopropyl-1H-imidazol-4-yl)[(1R,5S,6r)-6-(2-thienylcarbonyl)-3-azabicyclo[3.1.0]hex-3-yl]methanone] |  | 60 nM |  |
| Cc1csc(C(=O)[C@H]2[C@@H]3CN(C(=O)c4cn(C(C)C)cn4)C[C@@H]32)c1 [Example 77, (1-isopropyl-1H-imidazol-4-yl){(1R,5S,6r)-6-[(4-methyl-2-thienyl)carbonyl]-3-azabicyclo[3.1.0]hex-3-yl}methanone] |  | 20 nM |  |
| Cc1cc([C@H]2[C@@H]3CN(C(=O)c4cc(C(C)C)[nH]n4)C[C@@H]32)no1 [Example 103, (5-isopropyl-1H-pyrazol-3-yl)[(1R,5S,6r)-6-(5-methyl-1,2-oxazol-3-yl)-3-azabicyclo[3.1.0]hex-3-yl]methanone] |  | 200 nM |  |
| Cc1c([C@H]2[C@@H]3CN(C(=O)c4cc(C(C)C)[nH]n4)C[C@@H]32)noc1C(F)F [Example 104, {(1R,5S,6r)-6-[5-(difluoromethyl)-4-methyl-1,2-oxazol-3-yl]-3-azabicyclo[3.1.0]hex-3-yl}(5-isopropyl-1H-pyrazol-3-yl)methanone] |  | 40 nM |  |
| Cc1onc([C@H]2[C@@H]3CN(C(=O)c4cc(C(C)C)[nH]n4)C[C@@H]32)c1-c1ccccn1 [Example 106, (5-isopropyl-1H-pyrazol-3-yl){(1R,5S,6r)-6-[5-methyl-4-(2-pyridinyl)-1,2-oxazol-3-yl]-3-azabicyclo[3.1.0]hex-3-yl}methanone] |  | 40 nM |  |
| CC(C)c1cc(C(=O)N2C[C@@H]3[C@H](C2)[C@H]3c2nnn3ccccc23)n[nH]1 [Example 132, (5-isopropyl-1H-pyrazol-3-yl)[(1R,5S,6r)-6-([1,2,3]triazolo[1,5-a]pyridin-3-yl)-3-azabicyclo[3.1.0]hex-3-yl]methanone] |  | 40 nM |  |
| CC(C)c1cc(C(=O)N2C[C@@H]3[C@H](C2)[C@H]3c2nnn[nH]2)n[nH]1 [Example 134, (5-isopropyl-1H-pyrazol-3-yl)[(1R,5S,6r)-6-(1H-tetrazol-5-yl)-3-azabicyclo[3.1.0]hex-3-yl]methanone] |  | 4 nM |  |
| CC(C)c1cc(C(=O)N2C[C@@H]3[C@H](C2)[C@H]3C(=O)N(C)C2(C)CC2)n[nH]1 [Example 138, (1R,5S,6r)-N-methyl-N-(1-methylcyclopropyl)-3-[5-(propan-2-yl)-1H-pyrazole-3-carbonyl]-3-azabicyclo[3.1.0]hexane-6-carboxamide] |  | 800 nM |  |
